Reference: US20040253292A1, “MR-signal emitting coatings” (Wisconsin Alumni Research Foundation, priority 2003, published 2004)

Assay: Diffusion of a fluorescent probe in swollen gelatin gel (FRAP)
Assay type: physicochemical
Conditions: coating thickness 60 μm; diffusion coefficient 9×10^ m^2s^−1
From the text: To assess the stability of DTPA[Gd(III)] in the gelatin coating, the diffusion of a fluorescence probe in gelatin was studied by the technique of fluorescence recovery after photobleaching (FRAP). The instrument and data analysis scheme are described in Kim, S. H. and Yu, H., J. Phys. Chem. 1992, 96, 4034, which is hereby fully incorporated by reference. Fluorescein was used as the fluorescence probe due, in part, to its molecular size being roughly the same as that of DTPA[Gd(III)].
The focus of the study was to examine the possible retardation effects of gelatin concentration and cross-link density on the diffusion, which was determined at room temperature, i.e., below the gel point of gelatin. The diffusion of fluorescein probe slows down with the increase of gelatin concentration. The diffusion coefficient decreases from 1.5×10^−10 to 9×10^−12 m^2s^−1 when the concentration of gelatin increases from 9% to 40%. […] Accordingly, the probe diffusion is more likely controlled by the concentration of gelatin rather than the cross-link density. On the other hand, the cross-link density may determine the swelling ratio of gelatin, i.e., the concentration of gelatin in aqueous solution. […]

- time to diffuse out of the gelatin coating: about 67 seconds
SMILES: O=C(O)CN(CCN(CC(=O)O)CC(=O)O)CCN(CC(=O)O)CC(=O)O [DTPA, diethylenetriaminepentaacetic acid]
